In ChEMBL document CHEMBL6074671, “Discovery of Pyridine-2-Carboxamides Derivatives as Potent and Selective HPK1 Inhibitors for the Treatment of Cancer” (J Med Chem, 2024):

How the values were obtained:
[1] = molecular target: Tyrosine-protein kinase Lyn (Homo sapiens, UniProt P07948); test: Inhibition of LYNa (unknown origin)
MC-38 [2] = test: Synergistic antitumor activity against mouse MC38 cells implanted in C57BL/6 mouse model assessed as CDI value at high dose, po BID measured after 12 days in presence of anti-PD-1; format: functional; details: time 12 day
Cytochrome P450 2D6 = Cytochrome P450 2D6 (Homo sapiens, UniProt P10635); test: Inhibition of CYP2D6 in human liver microsomes using O-demethylation as substrate incubated for 10 mins in presence of NADPH by LC-MS/MS analysis; format: ADME, Microsome
Cytochrome P450 2D6, sequence (P10635 whole entry): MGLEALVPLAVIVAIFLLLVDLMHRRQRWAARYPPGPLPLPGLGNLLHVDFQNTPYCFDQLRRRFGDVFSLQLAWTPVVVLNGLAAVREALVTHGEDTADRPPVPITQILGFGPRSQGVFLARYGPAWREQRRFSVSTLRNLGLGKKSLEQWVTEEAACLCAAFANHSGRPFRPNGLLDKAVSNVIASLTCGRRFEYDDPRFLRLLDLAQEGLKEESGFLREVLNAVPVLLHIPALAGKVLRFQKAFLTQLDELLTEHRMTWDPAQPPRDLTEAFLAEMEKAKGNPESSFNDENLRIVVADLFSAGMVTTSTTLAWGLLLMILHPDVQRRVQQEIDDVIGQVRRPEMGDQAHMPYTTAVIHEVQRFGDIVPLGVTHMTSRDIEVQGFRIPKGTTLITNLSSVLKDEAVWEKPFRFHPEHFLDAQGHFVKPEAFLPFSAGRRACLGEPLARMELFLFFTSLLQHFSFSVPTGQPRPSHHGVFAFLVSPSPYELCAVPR

[3] = Genotoxicity in Salmonella typhimurium TA98 incubated for 48 to 72 hrs in presence of S9 fraction by AMES test; format: toxicity, subcellular; details: salmonella enterica subsp. enterica serovar typhimurium, time 48-72 hrs
[4] = Inhibition of ABL (unknown origin); design: species or system Homo sapiens
[5] = Toxicity in C57BL/6 mouse implanted with mouse MC38 cells assessed as effect on body weight loss at high dose, po BID measured after 12 days; format: organism-based; details: in vivo, 288 h, time 12 day
[6] = Plasma protein binding in rat assessed as unbound fraction at 2 uM incubated for 4 hrs by LC-MS/MS analysis; format: ADME, cell-free
[7] = molecular target: Proto-oncogene tyrosine-protein kinase receptor Ret (Homo sapiens, UniProt P07949); test: Inhibition of RET (unknown origin)
[8] = molecular target: Tyrosine-protein kinase ITK/TSK (Homo sapiens, UniProt Q08881); test: Inhibition of ITK (unknown origin)
Cytochrome P450 1A2 = Cytochrome P450 1A2 (Homo sapiens, UniProt P05177); test: Inhibition of CYP1A2 in human liver microsomes using phenacetin O-demethylation as substrate incubated for 10 mins in presence of NADPH by LC-MS/MS analysis; format: ADME, Microsome
Cytochrome P450 1A2, sequence (P05177 whole entry): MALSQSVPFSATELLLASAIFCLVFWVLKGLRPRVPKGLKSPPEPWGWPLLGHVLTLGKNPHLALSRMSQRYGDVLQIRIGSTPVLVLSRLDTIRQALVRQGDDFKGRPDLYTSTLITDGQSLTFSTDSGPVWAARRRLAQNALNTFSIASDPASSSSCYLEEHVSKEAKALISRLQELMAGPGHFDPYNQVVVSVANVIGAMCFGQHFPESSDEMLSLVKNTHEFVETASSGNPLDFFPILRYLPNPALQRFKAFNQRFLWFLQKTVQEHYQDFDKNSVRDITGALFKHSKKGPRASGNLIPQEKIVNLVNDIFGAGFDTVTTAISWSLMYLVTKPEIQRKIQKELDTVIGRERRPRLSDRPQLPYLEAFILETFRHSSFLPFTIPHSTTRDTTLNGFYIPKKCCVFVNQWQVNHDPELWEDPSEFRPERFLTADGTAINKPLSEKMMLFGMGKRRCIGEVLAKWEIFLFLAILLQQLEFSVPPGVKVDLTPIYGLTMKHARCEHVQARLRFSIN

CT26 = test: Antitumor activity against mouse CT26 cells implanted in Balb/c mouse model assessed as tumor growth inhibition administered as po dose BID measured after 15 days relative to control; format: functional; details: time 15 day
[9] = Efflux ratio in human Caco-2 cells; format: ADME, cell-based
[10] = Genotoxicity in Salmonella typhimurium TA1537 incubated for 48 to 72 hrs in presence of S9 fraction by AMES test; format: toxicity, subcellular; details: salmonella enterica subsp. enterica serovar typhimurium, time 48-72 hrs
in vivo [11] = details: cynomolgus monkey, po, 2 mg/kg
Description: Half life in Cynomolgus monkey at 2 mg/kg, po

in vivo [12] = details: cynomolgus monkey, plasma, iv, 1 mg/kg
Description: Clearance in Cynomolgus monkey plasma at 1 mg/kg, iv

MC-38 [13] = test: Antitumor activity against mouse MC38 cells implanted in C57BL/6 mouse model assessed as tumor growth inhibition at 3 mg/kg, po BID measured after 12 days relative to control; format: functional; details: MC-38, 288 h, time 12 day, read-out: TGI
[14] = molecular target: Serine/threonine-protein kinase PAK 3 (Homo sapiens, UniProt O75914); test: Inhibition of PAK3 (unknown origin)
[15] = Plasma protein binding in cynomolgous monkey assessed as unbound fraction at 2 uM incubated for 4 hrs by LC-MS/MS analysis; format: ADME, cell-free, Macaca fascicularis; details: cynomolgus monkey
[16] = Genotoxicity in Salmonella typhimurium TA100 incubated for 48 to 72 hrs in presence of S9 fraction by AMES test; format: toxicity, subcellular; details: salmonella enterica subsp. enterica serovar typhimurium, time 48-72 hrs
[17] = Half life in Sprague-Dawley rat at 10 mg/kg, po; format: ADME, organism-based; details: in vivo
[18] = molecular target: Serine/threonine-protein kinase PLK4 (Homo sapiens, UniProt O00444); test: Inhibition of PLK4 (unknown origin)
in vivo [19] = details: Balb/c, mouse, iv, 1 mg/kg
Description: Volume of distribution in Balb/c mouse at 1 mg/kg, iv

[20] = molecular target: Proto-oncogene tyrosine-protein kinase Src (Homo sapiens, UniProt P12931); test: Inhibition of SRC (unknown origin)
Proto-oncogene tyrosine-protein kinase Src, sequence (P12931 2-536 limits assumed): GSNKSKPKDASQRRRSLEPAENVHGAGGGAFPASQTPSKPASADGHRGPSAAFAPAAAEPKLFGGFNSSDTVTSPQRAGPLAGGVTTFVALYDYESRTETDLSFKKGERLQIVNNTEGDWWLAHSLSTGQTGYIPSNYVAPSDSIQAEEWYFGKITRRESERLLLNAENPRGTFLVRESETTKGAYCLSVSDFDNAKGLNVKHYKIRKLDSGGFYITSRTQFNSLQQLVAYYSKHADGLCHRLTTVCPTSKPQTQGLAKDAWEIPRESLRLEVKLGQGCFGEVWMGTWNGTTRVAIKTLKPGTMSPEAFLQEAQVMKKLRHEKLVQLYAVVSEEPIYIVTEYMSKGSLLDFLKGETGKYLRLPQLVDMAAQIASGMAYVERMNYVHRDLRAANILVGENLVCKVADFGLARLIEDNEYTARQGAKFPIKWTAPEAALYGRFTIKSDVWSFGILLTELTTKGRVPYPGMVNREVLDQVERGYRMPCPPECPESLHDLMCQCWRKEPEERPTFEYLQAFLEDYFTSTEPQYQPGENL

[21] = Inhibition of pSLP76 in human PBMC cells incubated for 4 hrs by HTRF method; format: cell-based
[22] = molecular target: Mitogen-activated protein kinase kinase kinase kinase 2 (Homo sapiens, UniProt Q12851); test: Inhibition of human recombinant full length GST tagged N-terminal MAP4K2 (1 to 820 end residues) expressed in insect Sf21 cells
Mitogen-activated protein kinase kinase kinase kinase 2, sequence (Q12851 whole entry): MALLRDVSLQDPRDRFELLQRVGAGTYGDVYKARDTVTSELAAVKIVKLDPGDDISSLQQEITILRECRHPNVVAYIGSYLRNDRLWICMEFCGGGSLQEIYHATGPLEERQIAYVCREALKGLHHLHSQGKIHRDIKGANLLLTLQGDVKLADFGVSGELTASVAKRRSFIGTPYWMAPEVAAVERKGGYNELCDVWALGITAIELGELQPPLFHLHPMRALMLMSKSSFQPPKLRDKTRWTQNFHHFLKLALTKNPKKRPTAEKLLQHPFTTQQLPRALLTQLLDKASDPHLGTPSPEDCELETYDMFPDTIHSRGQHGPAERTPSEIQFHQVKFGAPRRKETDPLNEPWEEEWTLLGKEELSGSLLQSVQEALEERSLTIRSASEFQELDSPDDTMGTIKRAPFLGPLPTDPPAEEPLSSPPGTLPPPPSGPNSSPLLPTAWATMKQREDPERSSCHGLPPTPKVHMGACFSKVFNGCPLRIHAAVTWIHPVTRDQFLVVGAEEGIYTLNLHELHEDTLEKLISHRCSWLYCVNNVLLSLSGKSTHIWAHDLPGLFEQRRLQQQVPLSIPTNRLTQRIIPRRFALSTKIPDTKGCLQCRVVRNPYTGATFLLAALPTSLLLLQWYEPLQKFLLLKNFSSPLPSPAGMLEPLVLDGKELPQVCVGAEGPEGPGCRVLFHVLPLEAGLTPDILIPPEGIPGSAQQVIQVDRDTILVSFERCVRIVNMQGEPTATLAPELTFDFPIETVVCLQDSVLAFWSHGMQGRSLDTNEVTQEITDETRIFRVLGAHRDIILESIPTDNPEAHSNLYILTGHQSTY

in vivo [23] = details: Beagle, dog, plasma, iv, 1 mg/kg
Description: Clearance in Beagle dog plasma at 1 mg/kg, iv

[24] = Toxicity in C57BL/6 mouse implanted with mouse MC38 cells assessed as increase in survival at high dose, po BID measured after 12 days in presence of anti-PD-1; format: organism-based; details: in vivo, 288 h, time 12 day
[25] = Half life in Balb/c mouse at 10 mg/kg, po; format: ADME, organism-based; details: in vivo
Cytochrome P450 2C9 = Cytochrome P450 2C9 (Homo sapiens, UniProt P11712); test: Inhibition of CYP2C9 in human liver microsomes using diclofenac 4-hydroxylation as substrate incubated for 10 mins in presence of NADPH by LC-MS/MS analysis; format: ADME, Microsome
Cytochrome P450 2C9, sequence (P11712 whole entry): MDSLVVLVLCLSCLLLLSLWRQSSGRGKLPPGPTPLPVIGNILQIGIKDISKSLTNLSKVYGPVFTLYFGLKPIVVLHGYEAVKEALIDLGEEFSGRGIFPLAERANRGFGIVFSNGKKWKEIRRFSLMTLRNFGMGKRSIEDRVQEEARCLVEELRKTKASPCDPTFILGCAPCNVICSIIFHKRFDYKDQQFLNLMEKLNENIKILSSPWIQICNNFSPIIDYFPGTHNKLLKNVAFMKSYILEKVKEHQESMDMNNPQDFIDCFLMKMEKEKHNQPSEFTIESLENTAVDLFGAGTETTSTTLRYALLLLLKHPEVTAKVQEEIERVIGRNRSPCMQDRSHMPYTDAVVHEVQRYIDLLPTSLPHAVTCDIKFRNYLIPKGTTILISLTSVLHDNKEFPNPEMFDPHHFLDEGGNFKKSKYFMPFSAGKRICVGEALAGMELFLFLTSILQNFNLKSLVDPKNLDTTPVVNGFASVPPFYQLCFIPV

Cytochrome P450 3A4 = Cytochrome P450 3A4 (Homo sapiens, UniProt P08684); test: Inhibition of CYP3A4 in human liver microsomes using midazolam 1-hydroxylation as substrate incubated for 10 mins in presence of NADPH by LC-MS/MS analysis; format: ADME, Microsome
Cytochrome P450 3A4, sequence (P08684 whole entry): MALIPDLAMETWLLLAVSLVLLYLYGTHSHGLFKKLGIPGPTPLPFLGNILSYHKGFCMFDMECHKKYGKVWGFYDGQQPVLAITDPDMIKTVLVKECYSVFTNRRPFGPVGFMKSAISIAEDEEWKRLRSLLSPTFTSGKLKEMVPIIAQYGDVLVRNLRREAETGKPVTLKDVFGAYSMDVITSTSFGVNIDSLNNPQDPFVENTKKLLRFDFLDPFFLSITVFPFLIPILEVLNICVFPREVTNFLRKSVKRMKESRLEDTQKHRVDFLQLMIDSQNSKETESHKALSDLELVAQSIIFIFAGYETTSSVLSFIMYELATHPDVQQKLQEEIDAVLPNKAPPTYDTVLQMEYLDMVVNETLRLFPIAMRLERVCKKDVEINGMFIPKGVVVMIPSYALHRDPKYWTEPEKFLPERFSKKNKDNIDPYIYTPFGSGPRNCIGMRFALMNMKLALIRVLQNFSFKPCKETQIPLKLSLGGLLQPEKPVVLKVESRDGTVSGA

[26] = molecular target: Serine/threonine-protein kinase 3 (Homo sapiens, UniProt Q13188); test: Inhibition of MST2 (unknown origin)
[27] = molecular target: Interleukin-1 receptor-associated kinase 4 (Homo sapiens, UniProt Q9NWZ3); test: Inhibition of IRAK4 (unknown origin)
Cytochrome P450 2C19 = Cytochrome P450 2C19 (Homo sapiens, UniProt P33261); test: Inhibition of CYP2C19 in human liver microsomes using S-mephenytoin 4-hydroxylation as substrate incubated for 10 mins in presence of NADPH by LC-MS/MS analysis; format: ADME, Microsome
[28] = molecular target: Mitogen-activated protein kinase 14 (Homo sapiens, UniProt Q16539); test: Inhibition of p38 alpha (unknown origin)
Mitogen-activated protein kinase 14, sequence (Q16539 whole entry): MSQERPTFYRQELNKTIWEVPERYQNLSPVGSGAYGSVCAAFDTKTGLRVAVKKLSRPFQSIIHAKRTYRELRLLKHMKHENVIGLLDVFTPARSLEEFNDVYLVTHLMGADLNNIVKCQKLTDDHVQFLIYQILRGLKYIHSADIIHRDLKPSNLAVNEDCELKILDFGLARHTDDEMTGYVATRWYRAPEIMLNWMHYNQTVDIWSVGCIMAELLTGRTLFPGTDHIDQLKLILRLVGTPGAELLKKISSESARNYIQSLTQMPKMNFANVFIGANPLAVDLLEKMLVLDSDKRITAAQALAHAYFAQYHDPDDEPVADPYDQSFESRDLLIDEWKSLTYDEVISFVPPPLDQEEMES

in vivo [29] = details: Beagle, dog, po, 2 mg/kg
[30] = molecular target: Tyrosine-protein kinase SYK (Homo sapiens, UniProt P43405); test: Inhibition of SYK (unknown origin)
in vivo [31] = details: Sprague-Dawley, rat, iv, 1 mg/kg
Description: Volume of distribution in Sprague-Dawley rat at 1 mg/kg, iv

[32] = molecular target: Tyrosine-protein kinase JAK2 (Homo sapiens, UniProt O60674); test: Inhibition of JAK2 (unknown origin)
Tyrosine-protein kinase JAK2, sequence (O60674 whole entry): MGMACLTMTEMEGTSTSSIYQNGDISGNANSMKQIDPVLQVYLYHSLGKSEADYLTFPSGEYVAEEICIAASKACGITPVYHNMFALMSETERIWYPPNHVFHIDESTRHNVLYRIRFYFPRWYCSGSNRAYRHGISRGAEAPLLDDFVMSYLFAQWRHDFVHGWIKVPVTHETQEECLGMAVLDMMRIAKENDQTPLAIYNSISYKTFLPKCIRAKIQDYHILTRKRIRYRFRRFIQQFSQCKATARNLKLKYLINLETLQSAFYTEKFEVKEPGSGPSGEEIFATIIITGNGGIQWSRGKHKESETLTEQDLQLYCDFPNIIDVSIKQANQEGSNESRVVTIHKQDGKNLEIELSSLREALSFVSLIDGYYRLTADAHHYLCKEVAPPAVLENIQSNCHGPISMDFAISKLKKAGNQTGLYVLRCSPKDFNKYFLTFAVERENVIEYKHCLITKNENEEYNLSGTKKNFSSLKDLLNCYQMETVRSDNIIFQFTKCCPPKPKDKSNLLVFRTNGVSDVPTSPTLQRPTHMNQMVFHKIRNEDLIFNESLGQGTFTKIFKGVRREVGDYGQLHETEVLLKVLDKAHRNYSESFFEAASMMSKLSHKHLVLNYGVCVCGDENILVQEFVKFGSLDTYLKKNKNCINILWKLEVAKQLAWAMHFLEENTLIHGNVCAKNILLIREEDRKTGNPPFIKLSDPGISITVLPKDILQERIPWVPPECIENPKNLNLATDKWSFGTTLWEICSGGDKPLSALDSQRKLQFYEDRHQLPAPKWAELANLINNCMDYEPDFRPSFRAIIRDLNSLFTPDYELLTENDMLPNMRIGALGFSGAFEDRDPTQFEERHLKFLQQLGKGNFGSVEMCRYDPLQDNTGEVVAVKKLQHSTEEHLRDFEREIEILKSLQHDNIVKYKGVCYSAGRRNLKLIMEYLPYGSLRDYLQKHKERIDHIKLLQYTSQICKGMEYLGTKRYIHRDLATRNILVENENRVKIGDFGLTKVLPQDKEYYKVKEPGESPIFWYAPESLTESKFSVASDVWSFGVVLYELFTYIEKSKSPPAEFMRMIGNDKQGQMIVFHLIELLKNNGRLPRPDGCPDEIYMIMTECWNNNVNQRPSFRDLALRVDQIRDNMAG

[33] = Effect on IL-2 secretion in human T cells by ELISA method; format: functional, cell-based; details: T-cell
[34] = molecular target: Non-receptor tyrosine-protein kinase TYK2 (Homo sapiens, UniProt P29597); test: Inhibition of TYK2 (unknown origin)
[35] = Plasma protein binding in mouse assessed as unbound fraction at 2 uM incubated for 4 hrs by LC-MS/MS analysis; format: ADME, cell-free
[36] = Plasma protein binding in dog assessed as unbound fraction at 2 uM incubated for 4 hrs by LC-MS/MS analysis; format: ADME, cell-free, Canis lupus familiaris
[37] = Toxicity in C57BL/6 mouse implanted with mouse MC38 cells assessed as increase in survival at low dose, po BID measured after 12 days in presence of anti-PD-1; format: organism-based; details: in vivo, 288 h, time 12 day

Which IC50 [1] does the source give for `COc1cc(Nc2ccc3c(n2)CN(C)C32CCN(C3COC3)CC2)c(C(N)=O)nc1-c1cccc2c1ncn2C` here?
Its IC50 is 5.14 µM.

What about the Activity (MC-38 [2]) of the same compound?
The Activity was 0.57.

And the IC50 (Cytochrome P450 2D6)?
Its IC50 is greater than 50 µM.

What about the Activity [3] of the same compound?
The Activity was “Non-toxic”.

What about the IC50 [4] of the same compound?
Its IC50 is 4.42 µM.

And the Activity [5]?
Its Activity is “Non-toxic”.

And the fraction unbound at 4 h, 2 µM [6]?
The fraction unbound at 4 h, 2 µM was 0.058.

And the IC50 [7]?
The IC50 was 2.99 µM.

And the IC50 [8]?
The IC50 was greater than 10 µM.

What about the IC50 (Cytochrome P450 1A2) of the same compound?
The IC50 was greater than 50 µM.

And the TGI (CT26)?
Its TGI is 64.3%.

And the efflux ratio [9]?
Its efflux ratio is 8.4.

And the Activity [10]?
Its Activity is “Non-toxic”.

And the half-life (in vivo [11])?
The half-life was 8.73 h.

What about the clearance (in vivo [12]) of the same compound?
The clearance was 11.4 mL/min/kg.

And the inhibition in vivo at 3 mg/kg (MC-38 [13])?
The inhibition in vivo at 3 mg/kg was 34.9%.

And the IC50 [14]?
The IC50 was greater than 10 µM.

And the fraction unbound at 4 h, 2 µM [15]?
The fraction unbound at 4 h, 2 µM was 0.153.

And the Activity [16]?
Its Activity is “Non-toxic”.

What about the half-life [17] of the same compound?
Its half-life is 3.42 h.

And the IC50 [18]?
The IC50 was greater than 10 µM.

And the Vd (in vivo [19])?
Its Vd is 2.13 L/kg.

What about the IC50 [20] of the same compound?
The IC50 was 2.11 µM.

What about the IC50 [21] of the same compound?
The IC50 was 0.0199 µM.

And the IC50 [22]?
The IC50 was 1.74 µM.

And the clearance (in vivo [23])?
Its clearance is 11.4 mL/min/kg.

And the Activity [24]?
The Activity was “Non-toxic”.

And the half-life [25]?
Its half-life is 1.45 h.

What about the IC50 (Cytochrome P450 2C9) of the same compound?
The IC50 was greater than 50 µM.

What about the IC50 (Cytochrome P450 3A4) of the same compound?
Its IC50 is greater than 50 µM.

What about the IC50 [26] of the same compound?
Its IC50 is greater than 10 µM.

And the IC50 [27]?
Its IC50 is 3.5 µM.

What about the IC50 (Cytochrome P450 2C19) of the same compound?
Its IC50 is greater than 50 µM.

What about the IC50 [28] of the same compound?
The IC50 was greater than 10 µM.

What about the bioavailability (in vivo [29]) of the same compound?
The bioavailability was 41.5%.

And the IC50 [30]?
The IC50 was greater than 10 µM.

What about the Vd (in vivo [31]) of the same compound?
The Vd was 2.2 L/kg.

What about the IC50 [32] of the same compound?
The IC50 was greater than 10 µM.

And the EC50 [33]?
Its EC50 is 0.0388 µM.

What about the IC50 [34] of the same compound?
Its IC50 is greater than 10 µM.

And the fraction unbound at 4 h, 2 µM [35]?
Its fraction unbound at 4 h, 2 µM is 0.079.

What about the fraction unbound at 4 h, 2 µM [36] of the same compound?
Its fraction unbound at 4 h, 2 µM is 0.309.

And the Activity [37]?
The Activity was “Non-toxic”.
